In patent US20240115527A1, “CXCR1/CXCR2 INHIBITORS FOR USE IN TREATING MYELOFIBROSIS” (Icahn School of Medicine at Mount Sinai, priority 2020, published 2024):

Assays:
Type in all cases: cell-based, human
[1] = tested on: normal donor CD34+ cells; assay: Proliferation and lineage differentiation of normal donor cells cultured with IL-8, flow cytometry; conditions: incubated with IL-8, FIG. 4A
[2] = tested on: spleen stromal cells; assay: VEGF mRNA expression by spleen stromal cells after IL-8 silencing; conditions: addition of IL-8, FIG. 3C
From the text: (§1) FIGS. 3A, 3B, and 3C illustrate that reduction of IL-8 blocks VEGF, which is involved in the development of splenic endothelial cells (EC)/MF HSC niches. FIGS. 3A and 3B illustrate that LCN2 increases IL-8 and CXCL1 protein and mRNA levels in spleen stromal cells. Con: left bars. LCN2: right bars. FIG. 3C illustrates that IL-8 regulates VEGF expression. si=silencing. Ab=antibody. Con=control.
(§2) Lipocalin2 (LCN2) is a cytokine produced by MF marrow myeloid cells. Levels of LCN2 are 2-3 fold greater in the circulation of MF patients as compared to PV and ET patients and even higher as compared to healthy controls. […] IL-8 and the related chemokine CXCL1 are pro-angiogenic creating a cascade of cytokines (VEGF) contributing to the development of splenic EC/MF HSC niches. […] The positive impact of IL-8 on VEGF expression was blocked by an IL-8 neutralizing antibody.

[3] = tested on: normal CD34+ cells; assay: Hematopoietic colony formation by normal CD34+ cells with IL-8; conditions: increasing concentrations of IL-8, FIG. 5B
[4] = tested on: MF CD34+, CD41+ and CD33+ cells; assay: Proliferation and lineage differentiation of MF mononuclear cells cultured with IL-8, flow cytometry; conditions: 50 ng/ml of IL-8, 3 days of incubation, FIG. 4A
Description: To evaluate the effects of IL-8 on MF CD34^+ cells proliferation and lineage differentiation, MF mononuclear cells (MNC cells) were cultured with StemSpan™ Serum-Free Expansion Medium (SFEM) containing 20 ng/ml of stem cell factor (SCF), thrombopoietin (TPO), FL-3L and IL-3 with or without 50 ng/ml of IL-8. The cells were harvested after 3 days of incubation. The proportion of hematopoietic cells belonging to specific lineages were determined using flow cytometry.

[5] = tested on: MF CD34+ cells; assay: Clonal assays of MF CD34+ cells; JAK2V617F allele status of picked hematopoietic colonies; conditions: for number of colonies, Heter (JAK2V617F heterozygous) / number of colonies, Homo (JAK2V617F homozygous) / number of colonies, WT (JAK2 wild type) / number of colonies, Wild (JAK2 wild type): no ladarixin
Description: Individual hematopoietic colonies were randomly picked from clonal assays of CD34^+ cells from 6 MF cases and the JAK2V617F allele status was determined.
IL-8 alone increased the absolute numbers of JAK2V617F+ colonies, and the addition of Ladarixin reduced the numbers of JAK2V617F positive colonies stimulated by IL-8 (Tables 1-3).

[6] = tested on: MF CD34+ cells; assay: Colony forming assay (CFU-GM) of cultured MF CD34+ cells with IL-8
From the text: FIGS. 5A, 5B. 5C, 5D, and 5E illustrate that a CXCR1/CXCR2 inhibitor reverses effects of IL-8 on MF CD34^+ cell colony formation. […] CFU-GM=colony-forming unit-granulocyte-macrophage. FIGS. 5B and 5C illustrate that IL-8 increased CFU-GM colony formation by MF CD34^+ cells in a dose dependent fashion and that the effects of IL-8 were inhibited by treatment with Ladx. FIG. 5B. Normal cells. FIG. 5C. MF cells. […] Con=control. IL-8 concentrations increase from left to right. […] P values were as follows: w/o Ladx: Con vs IL-8—10 ng: 0.159332; Con vs IL-8—20 ng: 0.011976; Con vs IL-8—50 ng: 0.00262; Con vs IL-8—100 ng: 0.00042; w/ 10 μM Ladx: Con vs Ladx: 0.315782; IL-8—10 ng vs plus Ladx: 0.295851; IL-8—20 ng vs plus Ladx: 0.077726; IL-8—50 ng vs plus Ladx: 0.031355; IL-8—100 ng vs plus Ladx: 0.081595.

[7] = tested on: normal splenic stromal cells; assay: IL-8 and CXCL1 mRNA and protein levels in normal splenic stromal cells treated with LCN2; conditions: treatment with LCN2, FIGS. 3A and 3B
From the text: as §1, §2

[8] = tested on: MF CD34+ cells co-cultured with splenic EC; assay: Proliferation of MF CD34+ cells co-cultured with LCN2 treated splenic endothelial cells; conditions: LCN2 treated endothelial cells, FIG. 4B
From the text: FIGS. 4A and 4B illustrate that addition of a CXCR1/CXCR2 inhibitor reverses effects of IL-8 on MF CD34^+ cells proliferation and lineage differentiation. FIG. 4A illustrates that IL-8 decreased the fraction of normal CD34^+, CD41^+, and CD33^+ cells, but increased the fraction of MF CD34^+, CD41^+, and CD33^+ cells. The effects of IL-8 were eliminated by the addition of the CXCR1/CXCR2 inhibitor ladarixin (Ladx). Normal CD34/CD41/CD33: left bars. MF CD34/CD41/CD33: Right bars. FIG. 4B illustrates that splenic endothelial cells (ECs) promote the proliferation of hematopoietic CD34^+ cells. Shown is fold change in CD34^+ cells cultured alone in the absence of cytokines and that the numbers are increased when the CD34^+ cells were co-cultured with LCN2 treated endothelial cells. The effects of co-cultivation with ECs were eliminated by addition of the CXCR1/CXCR2 antagonist reparixin (RPX).
Similarly, while treatment with LCN2 enhances endothelial cell (EC)-mediated proliferation of MF cells, treatment with the CXCR1/CXCR2 inhibitor reparixin decreased MF CD34^+ proliferation when co-cultured with splenic EC (FIG. 4B).

## IL-8: pro-inflammatory cytokine; CXCR1 and CXCR2 are its receptors
[1]
  percentage of normal donor CD34+, CD41+ and CD33+ cell populations: decreased
[2]
  effect on decrease of VEGF mRNA expression caused by silencing of IL-8: reversed this effect
[3]
  hematopoietic colony formation by normal CD34+ cells: did not affect
[4]
  percentage of MF CD34+, CD41+ and CD33+ cells: increased
[5]; IL-8 alone, 6 MF cases
  absolute numbers of JAK2V617F+ colonies: increased
[5]; MF1 CD34+ cells, IL-8 10 ng
  number of colonies, Heter (JAK2V617F heterozygous): 36
  number of colonies, Homo (JAK2V617F homozygous): 0
  number of colonies, WT (JAK2 wild type): 18
[5]; MF1 CD34+ cells, IL-8 20 ng
  number of colonies, Heter (JAK2V617F heterozygous): 48
  number of colonies, Homo (JAK2V617F homozygous): 0
  number of colonies, WT (JAK2 wild type): 17
[5]; MF1 CD34+ cells, IL-8 50 ng
  number of colonies, Heter (JAK2V617F heterozygous): 52
  number of colonies, Homo (JAK2V617F homozygous): 0
  number of colonies, WT (JAK2 wild type): 21
[5]; MF1 CD34+ cells, IL-8 100 ng
  number of colonies, Heter (JAK2V617F heterozygous): 68
  number of colonies, Homo (JAK2V617F homozygous): 0
  number of colonies, WT (JAK2 wild type): 0
[5]; MF2 CD34+ cells, IL-8 10 ng
  number of colonies, Heter (JAK2V617F heterozygous): 0
  number of colonies, Homo (JAK2V617F homozygous): 0
  number of colonies, WT (JAK2 wild type): 44
[5]; MF2 CD34+ cells, IL-8 20 ng
  number of colonies, Heter (JAK2V617F heterozygous): 3
  number of colonies, Homo (JAK2V617F homozygous): 0
  number of colonies, WT (JAK2 wild type): 38
[5]; MF2 CD34+ cells, IL-8 50 ng
  number of colonies, Heter (JAK2V617F heterozygous): 7
  number of colonies, Homo (JAK2V617F homozygous): 0
  number of colonies, WT (JAK2 wild type): 41
[5]; MF2 CD34+ cells, IL-8 100 ng
  number of colonies, Heter (JAK2V617F heterozygous): 3
  number of colonies, Homo (JAK2V617F homozygous): 0
  number of colonies, WT (JAK2 wild type): 52
[5]; MF3 CD34+ cells, IL-8 10 ng
  number of colonies, Heter (JAK2V617F heterozygous): 27
  number of colonies, Homo (JAK2V617F homozygous): 80
  number of colonies, WT (JAK2 wild type): 36
[5]; MF3 CD34+ cells, IL-8 20 ng
  number of colonies, Heter (JAK2V617F heterozygous): 79
  number of colonies, Homo (JAK2V617F homozygous): 63
  number of colonies, WT (JAK2 wild type): 31
[5]; MF3 CD34+ cells, IL-8 50 ng
  number of colonies, Heter (JAK2V617F heterozygous): 30
  number of colonies, Homo (JAK2V617F homozygous): 99
  number of colonies, WT (JAK2 wild type): 30
[5]; MF3 CD34+ cells, IL-8 100 ng
  number of colonies, Heter (JAK2V617F heterozygous): 32
  number of colonies, Homo (JAK2V617F homozygous): 95
  number of colonies, WT (JAK2 wild type): 42
[5]; MF4 CD34+ cells, IL-8 10 ng
  number of colonies, Heter (JAK2V617F heterozygous): 183
  number of colonies, Homo (JAK2V617F homozygous): 12
  number of colonies, Wild (JAK2 wild type): 0
[5]; MF4 CD34+ cells, IL-8 20 ng
  number of colonies, Heter (JAK2V617F heterozygous): 171
  number of colonies, Homo (JAK2V617F homozygous): 0
  number of colonies, Wild (JAK2 wild type): 0
[5]; MF4 CD34+ cells, IL-8 50 ng
  number of colonies, Heter (JAK2V617F heterozygous): 190
  number of colonies, Homo (JAK2V617F homozygous): 0
  number of colonies, Wild (JAK2 wild type): 0
[5]; MF4 CD34+ cells, IL-8 100 ng
  number of colonies, Heter (JAK2V617F heterozygous): 174
  number of colonies, Homo (JAK2V617F homozygous): 12
  number of colonies, Wild (JAK2 wild type): 12
[5]; MF5 CD34+ cells, IL-8 10 ng
  number of colonies, Heter (JAK2V617F heterozygous): 0
  number of colonies, Homo (JAK2V617F homozygous): 0
  number of colonies, Wild (JAK2 wild type): 124
[5]; MF5 CD34+ cells, IL-8 20 ng
  number of colonies, Heter (JAK2V617F heterozygous): 0
  number of colonies, Homo (JAK2V617F homozygous): 0
  number of colonies, Wild (JAK2 wild type): 142
[5]; MF5 CD34+ cells, IL-8 50 ng
  number of colonies, Heter (JAK2V617F heterozygous): 0
  number of colonies, Homo (JAK2V617F homozygous): 0
  number of colonies, Wild (JAK2 wild type): 115
[5]; MF5 CD34+ cells, IL-8 100 ng
  number of colonies, Heter (JAK2V617F heterozygous): 0
  number of colonies, Homo (JAK2V617F homozygous): 0
  number of colonies, Wild (JAK2 wild type): 115
[5]; MF6 CD34+ cells, IL-8 10 ng
  number of colonies, Heter (JAK2V617F heterozygous): 0
  number of colonies, Homo (JAK2V617F homozygous): 0
  number of colonies, Wild (JAK2 wild type): 115
[5]; MF6 CD34+ cells, IL-8 20 ng
  number of colonies, Heter (JAK2V617F heterozygous): 0
  number of colonies, Homo (JAK2V617F homozygous): 0
  number of colonies, Wild (JAK2 wild type): 131
[5]; MF6 CD34+ cells, IL-8 50 ng
  number of colonies, Heter (JAK2V617F heterozygous): 8
  number of colonies, Homo (JAK2V617F homozygous): 0
  number of colonies, Wild (JAK2 wild type): 125
[5]; MF6 CD34+ cells, IL-8 100 ng
  number of colonies, Heter (JAK2V617F heterozygous): 12
  number of colonies, Homo (JAK2V617F homozygous): 0
  number of colonies, Wild (JAK2 wild type): 87
[6]; IL-8 at doses of 50 ng/ml and 100 ng/ml, FIG. 5C
  numbers of MF CFU-GM colonies: increased
[6]; cultured with IL-8, FIG. 5A
  colony output of cultured MF CD34+ cells compared to WT CD34+ cells: enhanced colony output
[6]; treatment with IL-8, FIG. 5D
  CFU-GM colony formation by MF samples with the highest expression of CXCR1/CXCR2: increased

B1: LCN2: Lipocalin2 (LCN2) is a cytokine produced by MF marrow myeloid cells (protein, UniProt P80188 21-198, looked up)
Neutrophil …: QDSTSDLIPAPPLSKVPLQQNFQDNQFQGKWYVVGLAGNAILREDKDPQKMYATIYELKEDKSYNVTSVLFRKKKCDYWIRTFVPGCQPGEFTLGNIKSYPGLTSYLVRVVSTNYNQHAMVFFKKVSQNREYFKITLYGRTKELTSELKENFIRFSKSLGLPENHIVFPVPIDQCIDG
[7]
  CXCL1 mRNA and protein levels: significant increase
  IL-8 mRNA and protein levels: significant increase
[8]
  endothelial cell (EC)-mediated proliferation of MF cells: enhances
